Laboratory results as given in US20060258632A1, “Methods and agents for treating cardiovascular diseases” (Fraunhofer-Gesellschaft zur Forderung der angewandten …, priority 2002, published 2006).

Key:
[1] = test system: 5-alpha steroid reductase; experiment: Testosterone metabolism in human and rat heart microsomal suspensions (HPLC of metabolites); format: biochemical; settings: FIG. 3
[2] = test system: androgen receptor expression; experiment: Androgen receptor expression in cultivated rat heart muscle cells (real-time RT-PCR); format: cell-based; settings: testosterone added to culture medium (100 μM); isolated rat heart muscle cells; FIG. 5c
Protocol: (§1) Total RNA was isolated from heart tissue using the Total RNA Isolation Kit (Macherey-Nagel, Germany) according to the manufacturer's instructions. The quality of the isolated RNA was assessed by evaluating the ribosomal bands on agarose gel (1%). Of each sample, 2 μg RNA was used for reverse transcription. RNA and random primer (Roche Diagnostics, Mannheim, Germany) were preheated at 70° C. for 10 min. and subsequently incubated with 5×RT-AMV buffer (Roche Diagnostics, Mannheim, Germany), dNTPs (1 mM; Roche Diagnostics, Mannheim, Germany), 40U RNAse inhibitor (Stratagene, Amsterdam, Netherlands) and 20U AMV-RT (Promega, Mannheim, Germany) at a total volume of 20 μl for 60 min. at 42° C. […]
(§2) The studies were conducted With a lightcyler (Roche Diagnostics, Mannheim, Germany). […] By the end of each extension phase, fluorescence was measured to be used for evaluation. To guarantee that no unspecific primer dimers are measured, fluorescence detection was conducted above the temperature characteristic of primer dimers (as assessed in preliminary studies). Amplification was followed by a melting curve analysis, measuring fluorescence by slowly increasing the temperature of the DNA synthesis products from 65° C. to 95° C. […] The exact amount of the obtained PCR product was determined by co-amplification of standardized cardiac cDNA and according to the manufacturer's instructions. […]

[3] = test system: alpha-MHC expression; settings: testosterone substitution (100 μM, 8 h); rat heart muscle cells; FIGS. 7 and 8
Protocol: as §1, §2

Row | Compound | 5-alpha-DHT production decreased ([1]; finasteride 25 μM, heart microsomes, 100 μM testosterone, 4 h at 37° C.) [%] | production of dihydrotestosterone in the heart tissue ([1]; inhibition of 5-alpha reductase) | androgen receptor expression [2] | alpha-MHC expression [3]
1 | CC(C)(C)NC(=O)[C@H]1CC[C@H]2[C@@H]3CC[C@H]4NC(=O)C=C[C@]4(C)[C@H]3CC[C@]12C [finasteride] | 60 | reduced and normalized | – | –
2 | C[C@]12CC[C@H]3[C@@H](CCC4=CC(=O)CC[C@@]43C)[C@@H]1CC[C@@H]2O [testosterone] | – | – | reduces and normalizes | normalization
